Measurements as given in patent publication US6756480B2, “Modulators of receptors for parathyroid hormone and parathyroid hormone-related protein” (Amgen Inc., priority 2000, dated 2004).
Read-outs that look alike come from different tables or passages of the source. No end group written: not given here.

Experiments:
mice [1] = assay: Mouse bioassay: SC injection days 0, 5, 10; clinical chemistry (calcium, AP, TRAP) and tibial pQCT; type: in vivo; details: for serum TRAP (osteoclast marker) / calcemic potency among the 3 Fc peptides: mice; for serum TRAP (osteoclast marker): after single SC injection; for calcemic potency among the 3 Fc peptides: serum calcium
Experimental: Peripheral blood was obtained daily for 3 days following single subcutaneous injections of the indicated compounds.
Peripheral quantitative computed tomography (pQCT) was performed on the proximal tibial metaphysis of mice on day 15, after injections of PTH constructs on day 0, 5 and 10.
We then tested the effects of PTH-(1-34), PTH-(1-34)-Fc, PTH-(1-31)-Fc and PTH-(1-30)-Fc in mice. Four week old male mice were injected on days 0, 5, and 10 with vehicle or with PTH fragments, by SC injection. Peripheral blood was obtained for clinical chemistry at 24, 48, and 72 h. Mice were killed on day 15, vertebrae, tibiae and femurs were harvested for histology and one tibia was collected for bone density measurements (peripheral quantitative computed tomography, pQCT). Clinical chemistry endpoints included total serum calcium, serum alkaline phosphatase (AP, a marker of osteoblast activity), and serum tartrate-resistant acid phosphatase (TRAP, a marker of osteoclast activity). For each animal, the ratio of AP:TRAP was calculated as an index of relative osteoblast activity compared to osteoclast activity. A higher AP:TRAP ratio would indicate a potentially more anabolic agent.

PTH-1 receptor = biological target: T1, PTH-1 receptor (Homo sapiens, UniProt Q03431); details: cited from earlier work
T1 sequence (Q03431 27-593): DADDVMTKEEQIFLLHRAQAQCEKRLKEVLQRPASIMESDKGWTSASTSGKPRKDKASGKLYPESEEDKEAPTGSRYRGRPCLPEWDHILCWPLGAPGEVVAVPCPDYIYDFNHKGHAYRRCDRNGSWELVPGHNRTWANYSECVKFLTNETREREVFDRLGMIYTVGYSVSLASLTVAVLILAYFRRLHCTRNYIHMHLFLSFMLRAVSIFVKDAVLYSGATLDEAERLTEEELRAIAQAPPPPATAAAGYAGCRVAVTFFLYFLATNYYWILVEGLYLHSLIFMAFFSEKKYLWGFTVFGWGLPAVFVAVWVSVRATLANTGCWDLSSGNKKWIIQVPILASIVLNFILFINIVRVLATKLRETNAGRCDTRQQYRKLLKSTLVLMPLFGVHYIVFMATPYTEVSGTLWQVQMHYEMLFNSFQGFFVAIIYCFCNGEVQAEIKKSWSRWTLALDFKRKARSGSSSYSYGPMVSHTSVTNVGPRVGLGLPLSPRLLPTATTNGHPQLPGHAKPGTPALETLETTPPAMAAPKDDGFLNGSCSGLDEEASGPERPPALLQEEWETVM

healthy humans = details: infusion, unlike PTH-(1-34); cited from earlier work
[2] = test system: aged ovariectomized (OVX) rats; assay: Monotherapy in aged ovariectomized (OVX) rats: twice-weekly treatment, BMD by DEXA and serum calcium; type: in vivo
Experimental: Eleven months after OVX, rats were treated twice per week with phosphate-buffered saline (PBS, vehicle) or with APD (0.5 mg/kg) or with PTH-(1-34)-Fc (50 nmol/kg). DEXA was performed weekly. Blood was drawn 24 hours after the second weekly injection, when the calcemic effects of PTH-Fc are typically maximal. The effects of PTH-Fc administration on lumbar BMD (FIG. 11A), tibia/femur BMD (FIG. 11B), femoral metaphysis BMD (FIG. 11C), and serum calcium (FIG. 11D) were determined.
Sprague Dawley rats were OVX'd at 3 months of age and allowed to lose bone for 11 months. Other rats were sham-operated and treated twice per week with vehicle (PBS). OVX rats were treated twice per week with SC injections of either vehicle or the bisphosphonate APD (pamidronate, 0.5 mg/kg), or with PTH-(1-34)-Fc (50 nmol/kg) or with APD+PTH-(1-34)-Fc. BMD was determined weekly via dual energy X-ray absorptiometry (DEXA). Rats were sacrificed after 4 weeks of treatment. At the start of treatment, OVX rats had significant reductions in BMD at all skeletal sites analyzed, compared to vehicle-treated […] (FIG. 11, p<0.05, 2-way ANOVA).

OVX rats = details: cited from earlier work
mice [3] = assay: Acute hypercalcemia induced by PTHrP-(1-34) challenge, antagonist given SC, blood ionized calcium; type: in vivo; details: 0.5 mg/kg SC, vehicle-treated mice
Experimental: Normal male mice were injected SC with vehicle (PBS, circles) or with human PTHrP-(1-34) at 0.5 mg/kg (squares). PTHrP-challenged mice were then immediately injected SC with [Asn10,Leu11]PTHrP-(7-34)-Fc at 10 mg/kg (triangles) or 30 mg/kg (diamonds). Data represent group means, with an n of 6 mice/group.
We have cloned, expressed and purified [Asn10,Leu11]PTHrP-(7-34)-Fc. We tested the ability of this compound to antagonize both acute and chronic hypercalcemia responses in mice. PTHrP-(1-34) was used as a calcemic agent to evaluate the acute effects of [Asn10,Leu11]PTHrP-(7-34)-Fc. Because PTHrP is the principal mediator of HHM, this study also represents a model for hypercalcemia-inducing tumors. Briefly, blood ionized calcium (BIC) was measured at baseline, and mice were then challenged with vehicle (PBS) or with PTHrP-(1-34) (0.5 mg/kg) by SC injection. Mice were then treated once SC with varying doses of [Asn10,Leu11]PTHrP-(7-34)-Fc, or with vehicle (PBS). In vehicle-treated mice challenged with PTHrP-(1-34), a transient hypercalcemic response was observed. The peak calcemic response occurred at 3 h post challenge, and persisted until at least 6 h post challenge.

[4] = in vivo, circulating; cited from earlier work
rat PTH-1 receptor = biological target: T2, rat PTH-1 receptor (Rattus norvegicus, UniProt P25961); details: cited from earlier work
T2 sequence (P25961 27-591): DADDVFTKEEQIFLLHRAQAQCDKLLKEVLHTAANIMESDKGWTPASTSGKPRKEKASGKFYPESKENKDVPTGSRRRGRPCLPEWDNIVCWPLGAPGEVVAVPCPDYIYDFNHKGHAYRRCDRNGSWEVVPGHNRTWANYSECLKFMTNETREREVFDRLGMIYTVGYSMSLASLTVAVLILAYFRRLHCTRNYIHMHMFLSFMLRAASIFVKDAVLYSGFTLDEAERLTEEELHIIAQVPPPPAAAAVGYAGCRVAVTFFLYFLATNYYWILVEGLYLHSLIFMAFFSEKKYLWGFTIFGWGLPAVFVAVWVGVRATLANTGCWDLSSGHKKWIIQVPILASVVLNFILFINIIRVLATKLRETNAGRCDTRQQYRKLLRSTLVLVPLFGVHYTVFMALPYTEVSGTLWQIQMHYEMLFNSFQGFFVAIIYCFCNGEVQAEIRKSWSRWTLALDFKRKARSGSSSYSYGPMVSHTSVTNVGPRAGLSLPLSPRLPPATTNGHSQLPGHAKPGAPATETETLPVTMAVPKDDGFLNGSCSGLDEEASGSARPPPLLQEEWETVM

[5] = 100 nmoles/kg on day 0, 5, 10, pQCT day 15

PTH-(1-30)-Fc: PTH (1-30), SVSEIQLMHNLGKHLNSMERVEWLRKKLQD, linked at its C-terminus to an Fc domain (SVSEIQLMHNLGKHLNSMERVEWLRKKLQD-{Fc domain})
serum calcium (mice [1]; 100 nmoles/kg): failed to significantly increase serum calcium
bone mineral density (proximal tibial metaphysis) (mice [1]; [5]): greatest effect
serum AP (osteoblast marker) (mice [1]; 1,000 nmoles/kg): greatest elevation
time of peak serum AP after injection (mice [1]; 1,000 nmoles/kg): 72 h
bone mineral density (proximal tibial metaphysis) (mice [1]; 1,000 nmoles/kg on day 0, 5, 10, pQCT day 15): least effect
BMD versus controls (mice [1]; all doses (100-1,000 nmoles/kg), pQCT day 15): greater than in controls
calculated AP:TRAP ratio (mice [1]; high dose 1,000 nmoles/kg): greatest increase
serum TRAP (osteoclast marker) (mice [1]): not significantly changed
calcemic potency among the 3 Fc peptides (mice [1]): least calcemic
increase in bone density compared with the other PTH constructs (mice [1]; pQCT day 15): greatest increase in bone density

human PTH(1-31) [hPTH-(1-31)]
reduction of affinity for PTH-1 receptor compared to hPTH-(1-34) (PTH-1 receptor): 1-6 fold
serum calcium, plasma 1,25(OH)2D3, urinary N-TX levels (healthy humans): failed to elevate

NCCC(O)(P(=O)(O)O)P(=O)(O)O [APD, pamidronate, reference compound]
BMD at any skeletal site compared to vehicle-treated OVX rats ([2]; 0.5 mg/kg twice per week): did not significantly increase BMD
effect of co-administration on calcemic effect of PTH-(1-34)-Fc ([2]; APD 0.5 mg/kg co-administered): completely blocked the calcemic effect

PTH-(1-31)-Fc: PTH (1-31), SVSEIQLMHNLGKHLNSMERVEWLRKKLQDV, linked at its C-terminus to an Fc domain
bone mineral density (proximal tibial metaphysis) (mice [1]; [5]): no effect
serum AP (osteoblast marker) (mice [1]; 300 nmoles/kg (given for PTH-(1-34)-Fc), 72 h): significantly elevated
calculated AP:TRAP ratio (mice [1]; high dose 1,000 nmoles/kg): decreased
toxicity (mice [1]; higher doses 300-1,000 nmoles/kg): significant hypercalcemia-related toxicity
calculated AP:TRAP ratio (mice [1]; low dose 100 nmoles/kg): increased
serum TRAP (osteoclast marker) (mice [1]): dramatically increased
calcemic potency among the 3 Fc peptides (mice [1]): more potent calcemic agent

human PTH(1-28) (SVSEIQLMHNLGKHLNSMERVEWLRKKL; listed as Homo sapiens) [PTH-(1-28)]
anabolic effect (OVX rats; 200 μg/kg/day): ineffective
anabolic effect (OVX rats; 1,000 μg/kg/day): anabolic

human PTHrP(1-34) [PTHrP-(1-34)]
persistence of calcemic response post challenge (mice [3]): at least 6 h
time of peak calcemic response post challenge (mice [3]): 3 h

Parathyroid hormone [PTH]
half-life [4]: less than 1 h

human PTH(1-30) (SVSEIQLMHNLGKHLNSMERVEWLRKKLQD; listed as Homo sapiens) [hPTH-(1-30)]
reduction of affinity for PTH-1 receptor compared to hPTH-(1-34) (PTH-1 receptor): 10-100 fold
PLC activation (rat PTH-1 receptor): weak and incomplete agonist
